This note sets out measurements from patent publication US9724366B2, “CD11 B[low] macrophages and conditioned media thereof for treating cancer and/or fibrosis” (CARMEL-HAIFA UNIVRSITY ECONOMIC CORPORATION LTD., priority 2012, dated 2017).

The test system of data set [1] is macrophages recovered from peritoneal exudates. Nature of the data set: Ex vivo macrophage switch to the CD11b^low phenotype by pro-resolving lipid mediators (flow cytometry). The class given is cell-based, mice. Particulars: mediators 50 nM, Dex 25 μg/ml. The method, then: FIG. 8 show promotion of macrophage switch to the CD11b^low phenotype by pro-resolving lipid mediators. Macrophages were recovered from peritoneal exudates 72 hrs post peritonitis initiation and incubated overnight with vehicle (RPMI 10% FBS+0.05% ethanol), RvD1, RvD2, PD1, LXB4, or 15-epi-LXA4, (all at 50 nM), apoptotic cells (M/N ratio of 1:5), or Dex (25 μg/ml). Then, the cells were stained for CD11b and analyzed by flow cytometry, and the percentage of CD11b^low (A) and CD11b^high (B) macrophages was determined. Results are mean±SE of two experiments (n=2). #P<0.005, $ P<0.01, * P<0.05 compared to vehicle.
Macrophages were recovered from peritoneal exudates 72 hrs post peritonitis initiation and incubated overnight with either RPMI 10% FBS+0.05% ethanol, the resolvins RvD1 or RvD2, […] PD1 or lipoxins LXB4, or 15-epi-LXA4, (all at 50 nM), apoptotic cells (M/N ratio of 1:5), or Dex (25 μg/ml). After 20 hours, the cells were stained for CD11b and analyzed by flow cytometry.
Background: Flow cytometry measures light scatter and fluorescence of single cells or particles in a stream.

Data set [2] relates to peritonitis-affected mice. Nature of the data set: Murine zymosan A peritonitis, RvD1, RvE1 or Dex introduced into the peritoneum. The data set is classed as in vivo. Particulars: for appearance of CD11b^low macrophages in peritoneal exudates, increases over vehicle treatment: RvD1, RvE1 100 ng/mouse, Dex 25 mg/mouse into peritoneum 48 h after peritonitis initiation, exudates at 66 h; for neutrophil numbers: peritoneal exudates. How it is done:
Male C57BL/6 mice (6-8 wk) were injected intraperitionealy (I.P) with zymosan A (1 mg). 66 hours post zymosan A injection, the mice were euthanized by CO2, their peritoneal cavity was lavaged with 5 ml of phosphate buffered saline (PBS) and the peritoneal exudates were collected by centrifugation for further analysis and experimentation.
Peritoneal exudates were collected and exudate cells were stained with FITC-conjugated rat anti-mouse Ly-6G, PE-conjugated rat anti-mouse F4/80, and PerCP-conjugated rat anti-mouse CD11b (Biolegend) and analyzed by FACSCalibur (Beckton-Dickinson). Macrophages were isolated using EasySep PE selection magnetic beads following the manufacturer's instructions (StemCell Technologies).
In some experiments, the macrophages were sorted to CD11b^high and CD11b^low populations of >95% purity, using FACSaria (Beckton-Dickinson), and the separate populations were used for microscopic analysis and for ex vivo stimulation. In some experiments, PKH2-PCL green (0.25 mM, 0.5 mL) was injected I.P at 48 h and peritoneal cells were recovered 4 h later, immunostained for F4/80 and CD11b as above and analyzed for fluorescence intensity of different macrophage populations. In relevant experiments, vehicle, RvD1, RvE1 (100 ng/mouse each), or Dex (25 mg/mouse) were introduced to the peritoneum 48 h after peritonitis initiation, and the exudates were recovered after 66 h and analyzed as before.
Exudate cells or sorted CD11b^high and CD11b^low macrophages were stained with Hoechst, and enumerated under a fluorescent microscope (Zeiss). Two areas of two cover slips, each containing at least 50 (overall 200) macrophages were analyzed, and the average number of PMN engulfed per macrophage as well as the number of macrophages with cutoff numbers of engulfed PMN, were calculated.
Similar properties were attributed to glucocorticoids, such as dexamethasone (Dex), that inhibit leukocyte infiltration to inflammation sites and promote the clearance of apoptotic PMN by macrophages. To determine whether pro-resolving mediators regulate emergence of CD11b^low macrophages and thereby promote resolution, RvD1, RvE1, or Dex were introduced into peritonitis-affected mice, and the recovered leukocytes were collected and analyzed for macrophage and neutrophil numbers, macrophage CD11b expression, engulfment of PMN, and responsiveness to LPS. The results are presented in FIG. 8 of Schif-Zuck et al., 2011, which is incorporated herein by reference. […] In addition, RvD1, RvE1 and Dex enhanced the appearance of CD11b^low macrophages (32.8±8.8%, 46.2±1.8%, and 39.9±4.6% increases over vehicle treatment, for RvD1, RvE1, and Dex, respectively) in peritoneal exudates. […] To determine whether RvD1, RvE1, and Dex regulate apoptotic PMN engulfment by macrophages during resolution, exudate cells were enumerated for PMN engulfment and analyzed as in FIG. 2.

A further data set relates to macrophages. The data set can be described thus: Cytokine secretion (ELISA) of macrophages from treated mice, unstimulated or activated with LPS. The class given is cell-based. Particulars: unstimulated and LPS-stimulated macrophages. How it is done: Exudate macrophages were sorted or separated using PE selection magnetic beads (StemCell Technologies) and incubated (1×10^6 cells in 0.5 mL of culture media) with LPS (0-1000 ng/mL), poly (I:C) (4 μg/mL), or CpG-ODN (1 μM). After 16 h, the supernatants were collected and their TNF-α, IL-β, IL-10, TGFβ, CCL2, CCL3, and CCL5 contents were determined by standard ELISA.
To validate the improvement in immune-silencing of macrophages that followed treatment with RvD1, RvE1 and Dex, macrophages were activated with LPS, and cytokine secretion was determined. […] Thus, treatment with RvD1, RvE1, and Dex, promoted macrophage immune-silencing, as well as the secretion of pro-resolving cytokines from these cells.
On the technique in general: An ELISA detects its analyte on a solid surface through an enzyme-linked reagent.

Another data set deals with MEFs. The data set can be described thus: Apoptosis detection in MEFs by TUNEL. The data set is classed as cell-based, mouse. Particulars: 1.5 μg/ml, 4 hours, positive control. How it is done:
MEF cell line were cultured as described above in 8 well chamber glass slides, fixed with 4% PFA containing 5% sucrose and incubated for 1 hour with a mixture of TUNEL reaction mix according to the manufacturer's protocol (In Situ Cell death Detection Kit; TMR Red) covered with aluminum foil and placed in the 37° C., 5% CO2 incubator for 1 hour. Next, the slides were washed three times with PBS for 15 minutes each, and mounted with VECTASHIELD mounting medium with DAPI. The slides were imaged using a Nikon A1-R confocal laser scanning microscope (University of Haifa, Haifa, Israel).
3 images were captured from each well. Each captured frame was analyzed using NIS-Elements AR software to measure in the defined area the number of cells with positive DAPI staining, co-staining for DAPI and TUNEL (selected cells were larger than 8 μm), or Col-I expression by measuring sum intensity of area stained for Col-I per captured field.
Next we explored whether the inhibition of MEF proliferation by the CM-Mres was due to cell cycle arrest or increase in apoptosis of MEF. Therefore, we tested apoptosis of the MEFs at 48 hours. Therefore, MEFs were either untreated or were induced to differentiate on 8 chamber glass slides and were pre-incubated with CM-Mres 1 hour prior to adding TGFβ1. […] The cells were fixed and evaluated for apoptotic death by TUNEL staining. […]

Take `CCCCC[C@@H](O)/C=C/C=C\C=C\C=C\[C@@H](O)[C@@H](O)CCCC(=O)O` [15-epi-LXA4]: the “macrophage switch to the CD11b^low phenotype” value (shortened to “macrophage switch”) in data set [1] is “promotes macrophage switch”.
As for `C[C@@H]1C[C@H]2[C@@H]3CCC4=CC(=O)C=C[C@]4(C)[C@@]3(F)[C@@H](O)C[C@]2(C)[C@@]1(O)C(=O)CO` [Dex, dexamethasone], the “appearance of CD11b^low macrophages in peritoneal exudates, increases over vehicle treatment” value (“appearance … increases over vehicle treatment” for short) in data set [2] is 39.9±4.6%.
As for `CCCCC[C@H](O)[C@H](O)/C=C/C=C/C=C\C=C\[C@@H](O)CCCC(=O)O` [LXB4], the “macrophage switch” value in data set [1] is recorded as “promotes macrophage switch”.
Still for that read-out and setting: the same measure for `CC/C=C\C[C@H](O)\C=C/C=C/C=C/[C@H](O)C/C=C\C/C=C\CCC(=O)O` [PD1]: “promotes macrophage switch”.
On to `CC/C=C\C[C@H](O)/C=C/C=C\C=C\C=C\[C@@H](O)[C@@H](O)C/C=C\CCC(=O)O` [RvD1, 7S,8R,17S-trihydroxy-4Z,9E,11E,13Z,15E,19Z-docosahexaenoic acid], for which, in the data set with macrophages, the “secretion of TNFα” value was “inhibited”. In addition, in data set [2], the “appearance … increases over vehicle treatment” value is given as 32.8±8.8% and the neutrophil numbers result is recorded as “induced a reduction”. In addition, in data set [2] (mouse, in vivo), the “CD11b expression on CD11b^high macrophages” value is given as “reduced”, the “number of macrophages in peritoneal cavities” value was “reduced” and the “numbers of apoptotic PMN engulfed by macrophages present in the peritoneum” value was “reduced”. Further, the “macrophage switch” value in data set [1] was “promotes macrophage switch”.
`CC/C=C\C[C@H](O)[C@H](O)/C=C/C=C/C=C\C=C\[C@@H](O)C/C=C\CCC(=O)O` [RvD2]: the “macrophage switch” value in data set [1] is given as “promotes macrophage switch”.
Consider `CC[C@@H](O)/C=C/C=C\C[C@@H](O)/C=C/C=C/C=C\[C@@H](O)CCCC(=O)O` [RvE1, 5S,12R,18R-trihydroxy-4Z,8E,10E,14Z,16E-eico sapentaenoic acid], for which, in the data set with macrophages, the “secretion of TNFα” value was “inhibited”. Further, in data set [2], the “appearance … increases over vehicle treatment” value is on record as 46.2±1.8% and the neutrophil numbers entry is on record as “induced a reduction”. For the same compound, in data set [2] (mouse, in vivo), the “CD11b expression on CD11b^high macrophages” value is on record as “reduced” and the “appearance in the peritoneum of low-engulfing macrophages (less than 2 N/M)” value is “induced”.
As to `CN[C@@H]1C[C@H]2O[C@@](C)([C@@H]1OC)n1c3ccccc3c3c4c(c5c6ccccc6n2c5c31)C(=O)NC4` [staurosporine], the “percentage of apoptotic cells (TUNEL)” value in the data set on MEFs is reported as “no significant changes”.
